Data as given in patent EP0125439A2, “3,6-Disubstituted-1,8-naphthalimides and methods for their production and use” (WARNER-LAMBERT COMPANY, priority 1983, dated 1984).
Structures can show the parent of a compound that is named as a salt. Where two headings read alike, the source gives them in different places.

Legend:
mouse tumor line L1210 = test: growth inhibition of L1210 in suspension cell culture; assay type: cell-based; conditions: read-out: L1210 Leukemia In Vitro ID50
Procedure: In another test protocol, growth-inhibitory effects are measured against the mouse tumor line L1210 in suspension cell culture. Cell cultures were initiated at a density of 50,000 cells/ml in medium RPMI 1630 supplemented with 10 percent fetal calf serum. Composition of this culture medium and details of the culture procedure follow the published method (Journal of the National Cancer Institute 36, 405-415, 1966). Cultures are maintained at 37 degrees in stationary suspension culture under a 95 percent air + 5 percent C02 atmosphere. Test compounds are added to treated cultures at the time of initiation, and are present continually. After 72 hours, 40-fold dilutions of drug- treated and untreated control cultures are prepared in 0.9 percent NaCl solution, and cells are counted on an electronic particle counter. The growth-inhibitory effects are expressed as IDSO values, namely, test compound inhibitory dosages or concentrations required to decrease cell count in treated cultures to 50 percent of the cell count of untreated control cultures.

[1] = test system: lymphocytic leukemia P388; test: in vivo lymphocytic leukemia P388 test; design: species or system CD2Fl mice; conditions: survival time treated/control
Procedure: Another test protocol is the in vivo lymphocytic leukemia P388 test. The animals used are either male or female CD2Fl mice, six or seven animals per test group. The tumor transplant is by intraperitoneal injection of dilute ascitic fluid containing cells of lymphocytic leukemia P388. The test compounds are administered intraperitoneally once daily for five consecutive days at various doses following tumor inoculation. The animals are weighed and survivors are recorded on a regular basis for 30 days. A compound is designated "toxic" if, at a given dose, all animals died prior to four days after the first injection of drug. A ratio of survival time for treated (T)/control (C) animals is calculated. A criterion for efficacy is a ratio T/C times 100 greater than or equal to 125. See Cancer Chemotherapy Reports, Part 3, 3, 1 (1972) for a comprehensive discussion of the protocol.

B16 melanoma = test: solid tumor B16 melanoma in mice; assay type: in vivo; conditions: survival time treated/control
Procedure: Another test protocol utilizes the solid tumor B16 melanoma in mice. The tumor is inoculated by intraperitoneal injection. The test compounds are administered intraperitoneally once daily for nine consecutive days at various doses following tumor inoculation. A ratio of survival time for treated (T)/control (C) animals is calculated. A criterion for efficacy is a ratio T/C times 100 greater than or equal to 125. See Cancer Therapy Reviews, 7, 167 (1980) and references cited therein for further details and interpretation of the test.

HCT-8 cells = test: in vitro proliferating human colon adenocarcinoma (HCA) cell screen; assay type: cell-based; conditions: 60 - 65 hours with compound, nuclei count, 50% inhibition of growth, read-out: ID50 (the source's name)
Procedure: One test protocol is the in vitro proliferating human colon adenocarcinoma (HCA) cell screen. In this test, HCT-8 cells (HCA cell line received from Yale University) are trypsinized using trypsin-EDTA. A single cell suspension is achieved by passing the cells through a 26 gauge needle with a 20 cc syringe. A cell suspension is prepared using RPMI 1640 + 10% FCS + 50 ug/ml gentamicin sulfate with a cell concentration of approximately 30t000 cells/ml. The cell suspension is dispensed in Linbro 24-well plates; 1 ml/well. The plates are incubated for approximately 48 hours at 37 degrees C. in a 5% C02 atmosphere. At this time test compounds are added in the appropriate concentration. Five ul of the 200 ug/ml stock solution is added to each well in a primary test. Ten ul of the appropriate dilution is added to each well for a titration test. The plates are reincubated an additional 60 - 65 hours at 37 degrees C. in a 5% C02 atmosphere. The cells are lysed using a mix of cationic surfactant, glacial acetic acid and sodium chloride. Two ml of the lysed cell suspension from each well is added to 8 ml of diluent. The number of nuclei is determined using a Coulter counter (ZBI model), and a percent growth for each drug concentration is calculated. From this, an ID50 (molar concentration of compound that results in 50% inhibition of growth) is determined.

Bacillus subtilis 04555 = test: in vitro antibacterial/antifungal (ABF) agar-disk diffusion assay; assay type: cell-based; conditions: Dose 100 mg/ml, read-out: Inhibition Zone Diameter B. Subtilis
Procedure: (§1) Another test protocol is the in vitro anti- bacterial/antifungal (ABF) test. Compounds are tested for antimicrobial activity in an agar-disk diffusion assay, a standard microbiological technique for testing antibiotics. After incubation of each culture with a test compound, a zone of inhibition is determined. The zone diameter (mm) of active compounds ranges from a minimum of 13.5 mm to as high as 60 mm, with a greater diameter reflecting higher activity. For convenience, values are reported for the gram-negative bacterial species (Escherichia coli 04863), two gram positive bacteria (Bacillus subtilis 04555 and Streptococcus faecalis 05045 utilizing AM-09 medium), and one mycelial fungus (Penicillium avellaneum M2988).

Escherichia coli 04863 = test: as above; assay type: cell-based; conditions: Dose 500 mg/ml, read-out: Inhibition Zone Diameter E. Coli
Procedure: as §1

[2] = test system: Penicillium avellaneum M2988; test: as above; assay type: cell-based; conditions: Hamigera avellanea, read-out: Inhibition Zone Diameter P. avellaneum; for zone of inhibition at 500000 µg/mL: Dose 500 mg/ml
Procedure: as §1

[3] = test system: Streptococcus faecalis 05045; test: as above; assay type: cell-based; conditions: Enterococcus faecalis, Dose 500 mg/ml, AM-09 medium, read-out: Inhibition Zone Diameter S. Faecalis
Procedure: as §1

Compound	IC50 (mouse tumor line L1210; L1210, 72 hours, cell count 50 percent of untreated control) [nM]	P388 Leukemia In Mice T/C X100 ([1]; Dose 3.12 mg/kg intraperitoneally once daily for five days) [%]	B16 Melanoma T/C X100 (B16 melanoma; Dose 1.00 mg/kg intraperitoneally once daily for nine days) [%]	IC50 (HCT-8 cells) [nM]	zone of inhibition at 100000 µg/mL (Bacillus subtilis 04555) [mm]	zone of inhibition at 500000 µg/mL (Escherichia coli 04863) [mm]	zone of inhibition at 500000 µg/mL [2] [mm]	zone of inhibition at 500000 µg/mL [3] [mm]	IC50 (mouse tumor line L1210; L1210, 72 h) [nM]	zone of inhibition at 3 g/mL ([2]; Dose 3000 mg/ml) [mm]	P388 Leukemia In Mice T/C X100 ([1]; Dose 1.56 mg/kg intraperitoneally once daily for five days) [%]	B16 Melanoma T/C X100 (B16 melanoma; Dose 12.5 mg/kg intraperitoneally once daily for nine days) [%]
CN(C)CCN1C(=O)c2cc([N+](=O)[O-])cc3cc([N+](=O)[O-])cc(c23)C1=O [CH2CH2NMe2, N-[2-(Dimethylamino)ethyl]-3,6,-dinitro-1,8-naphtalamide, Hydrochloride]	36	167	125									
O=C1c2cc([N+](=O)[O-])cc3cc([N+](=O)[O-])cc(c23)C(=O)N1CCN1CCCC1 [CH2CH2N(CH2)4, 3,6-Dinitro-N[2-(pyrrolidinyl)ethyl]-1,8-naphthalimide Hydrocholoride]				180	16	17	22	18	83			
O=C1c2cc([N+](=O)[O-])cc3cc([N+](=O)[O-])cc(c23)C(=O)N1CCN1CCOCC1 [3,6-Dinitro-N-[2-(morpholino)ethyl]-1,8-naphthalimide]				860	22			14	1100	15		
CCN(CC)CCN1C(=O)c2cc([N+](=O)[O-])cc3cc([N+](=O)[O-])cc(c23)C1=O [CH2CH2NEt2, N-[2-(Diethylamino)ethyl]-3,6-dinitro-1.8-naphthalimide Hydrochloride]				960					350		155	
O=C1c2cc([N+](=O)[O-])cc3cc([N+](=O)[O-])cc(c23)C(=O)N1CCN1CCCCC1 [CH2CH2N(CH2)5, 3,6-Dinitro-N-[2-(piperidinyl)ethyl]-1,8-naphthalimide, Hydrochloride]				480	24	16	26	19	290			135
